This is an account of results in article PMC5766618, “Paper-based inkjet bioprinting to detect fluorescence resonance energy transfer for the assessment of anti-inflammatory activity” (Scientific Reports, 2018).

For this test, the target named is cAMP-specific 3′,5′-cyclic phosphodiesterase 4B (PDE4B) (Homo sapiens, UniProt Q07343).
Chain of cAMP-specific 3′,5′-cyclic phosphodiesterase 4B (PDE4B) (Q07343 whole entry): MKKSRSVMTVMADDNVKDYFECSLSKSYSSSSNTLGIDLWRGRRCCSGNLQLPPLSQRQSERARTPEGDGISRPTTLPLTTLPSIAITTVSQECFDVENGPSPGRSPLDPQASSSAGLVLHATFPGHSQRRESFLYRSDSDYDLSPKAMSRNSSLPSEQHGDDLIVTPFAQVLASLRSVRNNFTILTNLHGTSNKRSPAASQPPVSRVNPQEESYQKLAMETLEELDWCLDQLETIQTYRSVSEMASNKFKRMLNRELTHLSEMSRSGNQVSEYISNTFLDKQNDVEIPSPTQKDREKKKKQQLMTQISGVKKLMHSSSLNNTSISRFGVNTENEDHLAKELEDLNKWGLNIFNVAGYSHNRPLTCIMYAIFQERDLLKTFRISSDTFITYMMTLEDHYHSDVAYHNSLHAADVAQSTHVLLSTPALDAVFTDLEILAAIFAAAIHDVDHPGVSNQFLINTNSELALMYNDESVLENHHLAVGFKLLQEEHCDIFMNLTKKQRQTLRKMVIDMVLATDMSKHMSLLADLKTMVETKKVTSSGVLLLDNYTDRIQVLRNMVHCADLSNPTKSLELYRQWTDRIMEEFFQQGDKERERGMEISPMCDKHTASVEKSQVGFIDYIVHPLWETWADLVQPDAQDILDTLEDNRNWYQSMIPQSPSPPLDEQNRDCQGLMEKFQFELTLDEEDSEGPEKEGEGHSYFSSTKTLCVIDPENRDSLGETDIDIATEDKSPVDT

For `COc1ccc(C2CNC(=O)C2)cc1OC1CCCC1` (stereo not shown) [roliparm], the “inkjet-printed paper-based competitive FRET cAMP assay of PDE4B inhibition (IM50)” value was determined as 2.46e-13 mol.
